# US20060079510A1, “Use of PARP-1 inhibitors for protecting tumorcidal lymphocytes from apoptosis” (priority 2004, published 2006)
# “Also recorded” adds a separate entry of the source.
# Tests used:
# caspase-3 = experiment: Caspase activation in lymphocytes, FLICA assay (FAM-VAD.fmk), flow cytometry; assay type: cell-based, human; conditions: overnight, phagocytes ratio 1:1 or H2O2 250 μM; PJ34 pretreatment printed as 250 μM and 250 ηM
# Method: To study the role of caspases for ROS-induced cell death in anti-neoplastic cells, lymphocytes subjected to phagocytes or hydrogen peroxide were assayed for binding of a fluorochrome-conjugated caspase-3 inhibitor. Briefly, lymphocytes were incubated overnight with hydrogen peroxide (250 μM) or ROS-producing phagocytes (Ph, ratio 1:1) and then assayed for caspase activation using a Fluorochrome-Labeled Inhibitor of Caspases (FLICA) assay. Lymphocytes were incubated with a FITC-labeled caspase inhibitor (FAM-VAD.fmk, MP Biomedicals, Irvine, Calif.) for one hour according to the instructions provided by the manufacturer, and the percentage of cells with active caspase-3 was determined using flow cytometry. Caspase-3 activation was also monitored using the fluorogenic caspase-3 substrate PhiPhiLux (Oncolmmunin, Gaithersburg, Md.) according to the manufacturer's instructions. The FLICA reagent traverses the membranes of all cells and bind to the active site of activated caspase 3. Thus, only cells with activated caspases will retain the reagent and become fluorescent.
# Briefly, after overnight incubation with mononuclear phagocytes (Ph, ratio 1:1) or hydrogen peroxide (250 μM) in the presence or absence of PJ34 (250 μM), lymphocytes were stained with a FITC-labeled caspase inhibitor (FAM-VAD.fmk) and assayed for caspase activation using flow cytometry. […]
# [1] = system: peripheral blood lymphocytes; experiment: Oxidant-induced cell death in lymphocytes incubated with mononuclear phagocytes or hydrogen peroxide, flow cytometry; assay type: cell-based, human; conditions: for protection of lymphocytes from phagocyte- or hydrogen peroxide-induced (oxidant/ROS-induced) cell death / apoptosis: pretreatment, PJ34 250 nM, DPQ 3 μM, Z-VAD.fmk 100 μM, overnight incubation with phagocytes or H2O2
# Method: Peripheral venous blood was obtained as freshly prepared leukopacks from healthy blood donors at the Blood Centre, Sahlgren's Hospital, Göteborg, Sweden, to study the activation characteristics of cytotoxic lymphocytes in the presence and absence of MO, and ROM inhibitors. The blood (65 ml) was mixed with 92.5 ml Iscove's medium, 35 ml 6% Dextran (Kabi Pharmacia, Stockholm, Sweden) and 7.5 ml acid citrate dextrose (ACD) (Baxter, Deerfield, Ill.). After incubation for 15 minutes at room temperature, the supernatant was carefully layered onto Ficoll-Hypaque (Lymphoprep, Myegaard, Norway). Mononuclear cells (MNC) were collected at the interface after centrifugation at 380 g for 15 minutes at room temperature, washed twice in PBS and resuspended in Iscove's medium supplemented with 10% human AB^+ serum. During all further separation of cells, the cell suspensions were kept in siliconized test tubes (Vacuette, Greiner, Stockholm).
# The MNC were further separated into lymphocyte and monocyte (MO) populations using the counter-current centrifugal elutriation (CCE) technique originally described by Yasaka and co-workers (Yasaka, T. et al., J. Immunol., 127:1515) with modifications as described in Hansson, M., et al. (J. Immunol., 156: 42 (1996); hereby incorporated by reference). Briefly, the sedimentation rate of cells in a spinning rotor was balanced by a counter-directed flow through the chamber. By slowly increasing the flow rate, fractions of cells of well-defined sizes were collected. The MNC were resuspended in elutration buffer containing 0.5% BSA (ICN Biomedicals Inc., Aurora, Ohio) and 0.1% EDTA (VWR, Göteborg, Sweden) in buffered NaCl and fed into a Beckman J2-21 ultracentrifuge with a JE-6B rotor (Bechman Coulter Inc., Fullerton, Calif.) at 2100 rpm. A fraction with >90% MO was obtained at a flow rate of 19 ml/min. A lymphocyte fraction enriched for NK-cells (CD3^−/56^+ phenotype) and T-cells (CD3^+/56^−) was recovered at flow rates of 14-15 ml/min. This fraction contained <3% MO and consisted of CD3ε^−/56^+ NK-cells (45-50%), CD3ε^+/56^− T-cells (35-40%), CD3ε^−/56^− cells (5-10%), and CD3ε^+/56^+ cells (1-5%), as judged by flow cytometry. In some experiments, dynabeads (Dynal A/S, Oslo, Norway) coated with anti-CD56 were used to obtain purified lymphocyte preparations of T-cells, as described in detail by Hansson, M., et al., incorporated above.
# Briefly, lymphocytes were incubated overnight with autologous mononuclear phagocytes in the presence or absence of catalase (200 U/ml), histamine ([…]) or DPI (3 μM).
# Briefly, lymphocytes, pretreated with PJ34 (250 ηM), Z-VAD.fmk (100 μM) or medium, were subjected to mononuclear phagocytes at different Mo/Ly ratios (FIG. 5A) or to different concentrations of H2O2 (FIG. 5C). FIGS. 5A-5D illustrate that PJ34 protected lymphocytes from cell death induced by phagocytes ([…], ratio 1:1, p<0.05) and hydrogen peroxide (FIGS. 5C and 5D, 250 μM, p<0.001).
# Hepatitis C = experiment: Treatment of subjects suffering from Hepatitis C (Example 3); assay type: in vivo, human; conditions: PJ34 100 mg/day intravenously, three weeks
# Method: Subjects suffering from Hepatitis C are identified. Individuals are administered 100 mg/day of a PARP-1 inhibitor, PJ34, intravenously for a period of three weeks.
# lymphocytes = experiment: Altered mitochondrial transmembrane potential (Mitochondrial Membrane Sensor Kit) and To-Pro-3 staining; assay type: cell-based, human; conditions: H2O2 250 μM or mononuclear phagocytes; PJ34 250 μM as printed
# Method: A Mitochondrial Membrane Sensor Kit (BD Clontech) was used to identify cells with altered mitochondrial transmembrane potential according to the manufacturer's protocol.
# Briefly, lymphocytes exposed to hydrogen peroxide (250 μM) were assayed for altered mitochondrial transmembrane potential and plasma membrane integrity at various time points. Depolarization of the Ψm is seen as an increase in green fluorescence (mitosensor monomers).
# tumoricidal lymphocytes = experiment: Tumor-killing function of tumoricidal lymphocytes after phagocyte or hydrogen peroxide exposure; assay type: cell-based, human; conditions: PJ34 250 nM or DPQ 3 μM
# Description: As detailed above, a significant part of the dysfunction of tumor-killing lymphocytes at the site of malignant tumor growth has been attributed to inhibitory signals from tumor-infiltrating or tumor-adjacent phagocytes. […] However, the molecular events underlying phagocyte-induced lymphocyte apoptosis are not fully understood. The role of two enzyme systems responsible for induction and execution of apoptosis, caspases and the poly(ADP-ribose) polymerase (PARP) were investigated. Human tumoricidal lymphocytes were incubated with autologous mononuclear phagocytes or with exogenously added hydrogen peroxide, and assayed for apoptotic features at various time points. […] It is therefore believed that PARP-dependent cell death may be critically involved in phagocyte-dependent, oxygen free radical-induced cell death.
# NK cells [2] = conditions: cited from earlier work
# [3] = system: herpes simplex virus (HSV); conditions: cited from earlier work
# NK cells [4] = conditions: histamine and IL-2; cited from earlier work
# melanoma cell lines = conditions: histamine and IL-2 given prior to inoculation; cited from earlier work
# human lymphocytes = experiment: Large-scale DNA fragmentation, pulsed-field gel electrophoresis; assay type: cell-based; conditions: cells treated with Z-VAD.fmk and 250 μM H2O2, 16 hours
# Method: Translocation of AIF to the nucleus has been associated with large-scale DNA fragmentation. The observed accumulation of nuclear AIF after challenge with H2O2 led to investigation as to whether large-scale DNA fragmentation accompanied lymphocyte cell death. To that end, lymphocytes were exposed to H2O2, cast into agarose plugs and analyzed using pulsed-field gel electrophoresis. Briefly, human lymphocytes were exposed to 250 μM H2O2 and incubated overnight at 37° C. After 16 hours, the cells were washed twice with PBS and resuspended in PBS. Cells were mixed with an equal volume of 2% low melting point agarose and cast into agarose plugs. After solidifying, plugs were incubated overnight at 56° C. in a buffer containing 0.2% Sodium deoxycholate and 0.5% N-lauroyl sarcosine supplemented with 0.5 mg/ml proteinase K.
# [5] = vs subjects without PARP-1 inhibitor
compound,measurement,setting,value
CN(C)CC(=O)Nc1ccc2[nH]c(=O)c3ccccc3c2c1 [PJ34],caspase activation triggered by phagocytes and H2O2 (FIG. 3),caspase-3,reversed
same,protection from cell death induced by hydrogen peroxide (FIGS. 5C and 5D),"[1]; PJ34 250 ηM, H2O2 250 μM, p<0.001",protected
same,protection from cell death induced by phagocytes,"[1]; PJ34 250 ηM, Mo/Ly ratio 1:1, p<0.05",protected
same,protection of lymphocytes from phagocyte- or hydrogen peroxide-induced (oxidant/ROS-induced) cell death / apoptosis,[1],completely protected; also recorded: resisted the oxidative stress
same,symptoms associated with Hepatitis C,Hepatitis C,reduction in symptoms associated with Hepatitis C
same,ROM-mediated damage,Hepatitis C; [5],reduction in ROM-mediated damage
same,cytotoxic lymphocyte activation,Hepatitis C; [5],increase in cytotoxic lymphocyte activation
same,protection from oxidant-induced alterations of Ψm (FIG. 4),lymphocytes,protected
same,restoration of tumor-killing function,tumoricidal lymphocytes,restored
NCCc1c[nH]cn1 [histamine],protection of lymphocytes from phagocyte-induced cell death (FIG. 1),"[1]; overnight with autologous mononuclear phagocytes, catalase 200 U/ml, histamine, DPI 3 μM, p<0.001, n=4",fully protected
same,monocyte mediated NK cell suppression,NK cells [2]; histamine and IL-2,complete or nearly complete abrogation
same,NK cell cytotoxicity,"NK cells [2]; histamine and IL-2 in the presence of monocytes, relative to IL-2 only",elevated levels of cytotoxicity
same,effect on NK mediated cytotoxicity,NK cells [2]; in the absence of monocytes,no effect or weakly suppressed
same,"survival time, combination",[3]; combination of histamine and IL-2,synergistic effect
same,survival time,[3]; single dose of histamine,prolong survival time
same,granulocyte mediated NK cell suppression,NK cells [4],only partially removed
same,development of lung metastatic foci,melanoma cell lines,protected
Z-VAD.fmk,protection of lymphocytes from phagocyte- or hydrogen peroxide-induced (oxidant/ROS-induced) cell death / apoptosis,[1],only partially protected; also recorded: failed to protect
same,DNA fragments on pulsed-field gel (FIG. 7),human lymphocytes,distinct band (approx. 50 kb)
same,protection from oxidant-induced alterations of Ψm (FIG. 4),lymphocytes,failed to display any significant protective effect
